The subject of test [1] is NGF production in the L-M cells. The experiment in a line: Enhancing activity for NGF production, Example 13 method (20 hours culture after addition). Format: cell-based, murine. The conditions noted are these: for activity at 12.5 µM: added amount 12.5 μM; for activity at 6.25 µM: added amount 6.25 μM; for activity at 3.125 µM: added amount 3.125 μM; for Enhancement of NGF production (in words): L-M cells. The protocol: (§1) L-M cells (ATCC CCL-1.2) from murine fibroblasts were suspended in an M199 medium (manufactured by ICN) containing 0.5% bactopeptone (manufactured by Gibco BRL) so as to have a concentration of 1.5×10^5 cells/mi. The suspension was put in a 96-well plate in an amount of 0.1 ml each well, and the cells were aseptically cultured. After culturing the cells for 3 days, the medium was removed therefrom, and exchanged with an M199 medium containing 0.5% bovine serum albumin (manufactured by Sigma). Caffeic acid (manufactured by Sigma, dimethyl suif oxide (DMSO) solution), a substance known to have enhancing activity for NGF production, was added to each well containing the cells, so as to have a final concentration of 0, 50, 100 or 200 μM, and the cells were cultured for 24 hours. One having a caffeic acid concentration of 0 μM was used as a negative control. In addition, the final concentration of DM50 in each well was adjusted to 0.1%. After the termination of the culture, the NGF concentration in the culture medium was determined by an enzyme immunoassay method (NGF Emax Immuno Assay System, manufactured by Promega). The degree of the enhancement for NGF production of caffeic acid at each added amount was expressed in percentage as the enhancement ratio (%) on the basis of the NGF concentration in the cell culture medium at each added amount, when the NGF concentration in the cell culture medium of the negative control was defined as 100%. The experiment was carried out twice, and an average value was taken. It was shown that the enhancing activity for NGF production of caffeic acid could be assayed by this method.
The enhancing activity for NGF production of each of the compounds (5) to (12), (17) to (22), (24) and (25) prepared in Preparation Examples 2 to 9 and Examples 1 to 8, and the compound (23) (rosemarinic acid; manufactured by Funakoshi), or caffeic acid (CA), 4-methylcatechol (4MC) and epinephrine (EN), substances conventionally known to enhance NGF production was assayed in the same manner as in Reference Example 1. In addition, the time period for cell culture after the addition of the compound was 20 hours. A negative control was set for every test of each compound. Each experiment was carried out twice, and an average value was taken.
(1) L-M cells (ATCC CCL-1.2) from murine fibroblasts were suspended in an M199 medium (manufactured by ICN) containing 0.5% bactopeptone (manufactured by Gibco) so as to have a concentration of 1.5×10^5 cells/ml. The suspension was put in a 96-well plate in an amount of 0.1 ml each well, and the cells were aseptically cultured. After culturing the cells for 3 days, the medium was removed therefrom, and exchanged with an M199 medium containing 0.5% bovine serum albumin (manufactured by Sigma). Thereto was added an yellow pigment (powder Sun Yellow No. 2, manufactured by San-Ei Gen F.F.I.) obtained by extraction from flower of Carthamus tinctorius LINNE) as the sample so as to have a final concentration of 0, 1.25, 2.5 or 5 mg/ml, and the cells were cultured for 20 hours. After the termination of the culture, the NGF concentration in the culture medium was assayed by an enzyme immunoassay method (NGF Emax Immuno Assay System, manufactured by Promega). The degree of the enhancement for NGF production was expressed in the percentage as an enhancement ratio (%), when the NGF concentration in the cell culture medium with no addition of the sample as the negative control was defined as 100%. The experiment was carried out twice, and an average value was taken. […]
The enhancing activity for NGF production of the purified safflomin A thus obtained was determined in the same manner as in Example 13. The purified safflomin A was added so as to have a fmal concentration of 0 or 2.5 mg/ml. […]

Test [2] shares this test system. The test can be described thus: Enhancing activity for NGF production, Reference Example 1 method (24 hours culture, NGF enzyme immunoassay of culture medium). The format is cell-based, murine. The conditions noted are these: for Enhancement Ratio (%): negative control = 100%. The protocol:
as §1
The enhancing activity for NGF production of the compound (13) (manufactured by Funakoshi) was assayed in the same manner as in Reference Example 1. The compound (13) was added so as to have a final concentration of 0, 0.5, 1, 2, 5, 10, 20 or 50 μM.
The enhancing activity for NGF production of a compound (14) (manufactured by Sigma) was assayed in the same manner as in Reference Example 1. The compound (14) was added so as to have a final concentration of 0, 50, 100 or 200 μM.
The enhancing activity for NGF production of a compound (15) (manufactured by Sigma) was assayed in the same manner as in Reference Example 1. The compound (15) was added so as to have a final concentration of 0, 12.5, 25 or 50 μM.
The enhancing activity for NGF production of a compound (16) (manufactured by Wako Pure Chemical Industries) was assayed in the same manner as in Reference Example 1. The compound (16) was added so as to have a final concentration of 0, 25, 50 or 100 μM.

Where [3] appears, read: Mus musculus, negative control = 100%, read-out: Enhancement Ratio (%).
[4] abbreviates: Mus musculus, added amount 25 μM, negative control = 100%, read-out: Enhancement Ratio (%).
Setting [5] is: Mus musculus, added amount 50 μM, negative control = 100%, read-out: Enhancement Ratio (%).
Setting [6] is: Mus musculus, added amount 100 μM, negative control = 100%, read-out: Enhancement Ratio (%).
The mark [7] stands for this setting: Mus musculus, added amount 200 μM, negative control = 100%, read-out: Enhancement Ratio (%).
Setting [8] is: added amount 100 μM, negative control = 100%.

Turning to `Cc1ccc(O)c(O)c1` [Compound 4MC, 4-methylcatechol, reference compound], the activity at 12.5 µM in test [1] (setting [3]) worked out at 143%. For the same molecule, the activity at 25 µM in test [1] (setting [4]) was found to be 313%.
`CC(=O)Oc1ccc(C(=O)/C=C/c2ccc(OC(C)=O)c(OC(C)=O)c2)c(OC(C)=O)c1` [Compound (5), 3,4,2′,4′-Tetraacetylbutein]: in test [1] (setting [3]), the activity at 6.25 µM is 684%.
Regarding `O=C(/C=C/c1ccc(O)c(O)c1)c1ccc(Cl)cc1Cl` [Compound (6), 3,4-Dihydroxy-2′,4′-dichloro chalcone], in test [1] (setting [3]), the activity at 6.25 µM stood at 763% and the activity at 12.5 µM was 864%.
Turning to `COc1ccc(C(=O)/C=C/c2ccc(O)c(O)c2)c(OC)c1` [Compound (7), 3,4-Dihydroxy-2′,4′-dimethoxy chalcone], in test [1] (setting [3]), the activity at 6.25 µM is 359% and the activity at 12.5 µM worked out at 410%. In addition, the activity at 25 µM in test [1] (setting [4]) was found to be 899%.
In the case of `CC(=O)C=Cc1ccc(O)c(O)c1` [Compound (8), 4-(3,4-Dihydroxyphenyl)-3-buten-2-one], the activity at 50 µM in test [1] (setting [5]) is 375%. Moreover, the activity at 100 µM in test [1] (setting [6]) came to 676%.
As for `O=C(/C=C/c1ccc(O)c(O)c1)C12CC3CC(CC(C3)C1)C2` [Compound (9), 1-Adamantyl-3-(3,4-dihydroxyphenyl)-2-propen-1-one], in test [1] (setting [3]), the activity at 3.125 µM was determined as 206%, the activity at 6.25 µM stood at 550% and the activity at 12.5 µM is 810%.
`O=C(CCc1ccc(O)c(O)c1)c1ccc(O)cc1O` [Compound (10), Dihydrobutein]: in test [1] (setting [3]), the activity at 6.25 µM was 174% and the activity at 12.5 µM was 333%. For the same molecule, the activity at 25 µM in test [1] (setting [4]) was 839%.
For the molecule `O=C(C/C=C/c1ccc(O)c(O)c1)C12CC3CC(CC(C3)C1)C2` [Compound (11), 1-Adamantyl-4-(3,4-dihydroxyphenyl)-3-buten-1-one], the activity at 0.781 µM in test [1] (Mus musculus, added amount 0.781 μM, negative control = 100%, read-out: Enhancement Ratio (%)) was determined as 775%. In addition, in test [1] (Mus musculus, added amount 1.563 μM, negative control = 100%, read-out: Enhancement Ratio (%)), the activity at 1.563 µM stood at 866%.
In the case of `O=C(CC(O)Cc1ccc(O)c(O)c1)C12CC3CC(CC(C3)C1)C2` (centres unmarked) [Compound (12), 1-Adamantyl-3-hydroxy-4-(3,4-dihyroxyphenyl)-butan-1-one], in test [1] (setting [3]), the activity at 3.125 µM was 108%, the activity at 6.25 µM is 364% and the activity at 12.5 µM turned out to be 966%. Also, the activity at 25 µM in test [1] (setting [4]) is 908%.
`O=C(/C=C/c1ccc(O)c(O)c1)OCCc1ccccc1` [Compound (15), Caffeic acid phenylethylester]: the “Enhancement of NGF production (in words)” value in test [2] (L-M cells) was “enhanced NGF production in the L-M cells in a concentration-dependent manner”. In addition, the “Enhancement Ratio (%)” value is 236% in test [2] (added amount 12.5 μM), 263% in test [2] (added amount 25 μM) and 320% in test [2] (added amount 50 μM).
In the case of `O=C(/C=C/c1cc(O)c(O)c(O)c1)c1ccc(O)cc1O` [Compound (17), 3,4,5,2′,4′-Pentahydroxychalcone], the activity at 12.5 µM in test [1] (setting [3]) is 195%. Also, in test [1] (setting [4]), the activity at 25 µM amounted to 598%.
Turning to `O=C(/C=C/c1ccc(O)c(O)c1)c1cc(O)ccc1O` [Compound (18), 3,4,2′,5′-Tetrahydroxychalcone], in test [1] (setting [3]), the activity at 6.25 µM came out at 471% and the activity at 12.5 µM is 476%. For the same molecule, the activity at 25 µM in test [1] (setting [4]) was 874%.
As for `O=C(/C=C/c1ccc(O)c(O)c1)c1ccc(O)c(O)c1` [Compound (19), 3,4,3′,4′-Tetrahydroxychalcone], the activity at 12.5 µM in test [1] (setting [3]) came to 269%. Moreover, the activity at 25 µM in test [1] (setting [4]) came out at 312%. Further, the activity at 50 µM in test [1] (setting [5]) was determined as 844%.
On the same counts, the results for `O=C(/C=C/c1ccc(O)c(O)c1)c1cc(O)cc(O)c1` [Compound (20), 3,4,3′,5′-Tetrahydroxychalcone] are 346%, 482% and 692%.
Turning to `O=C(/C=C/c1ccc(O)c(O)c1)c1ccccc1O` [Compound (21), 3,4,2′-Trihydroxychalcone], the activity at 25 µM in test [1] (setting [4]) came out at 223%. Further, the activity at 50 µM in test [1] (setting [5]) is 229%. Also, in test [1] (setting [6]), the activity at 100 µM is 502%.
Consider `O=C(/C=C/c1ccc(O)c(O)c1)c1ccc(O)c(O)c1O` [Compound (22), 3,4,2′,3′,4′-Pentahydroxy chalcone], for which the activity at 50 µM in test [1] (setting [5]) was found to be 124%. Also, the activity at 100 µM in test [1] (setting [6]) was 130%. The activity at 200 µM in test [1] (setting [7]) was found to be 242%.
Taken in the same sequence, the figures for `CNC[C@H](O)c1ccc(O)c(O)c1` [EN, epinephrine, reference compound] were 137%, 218% and 255%.
As to `COc1cc(O)c(CC=C(C)C)c(O)c1C(=O)/C=C/c1ccc(O)cc1` [xanthohumol, Xanthohumol], the “Enhancement of NGF production (in words)” value in test [1] is “enhanced NGF production in the L-M cells in a concentration-dependent manner”. In addition, the activity at 15.6 µM in test [1] (Mus musculus, added amount 15.6 μM, negative control = 100%, read-out: Enhancement Ratio (%)) was found to be 160%. For the same molecule, the activity at 31.3 µM in test [1] (Mus musculus, added amount 31.3 μM, negative control = 100%, read-out: Enhancement Ratio (%)) was 212%. In addition, the activity at 62.5 µM in test [1] (Mus musculus, added amount 62.5 μM, negative control = 100%, read-out: Enhancement Ratio (%)) is 473%. Also, in test [1] (Mus musculus, added amount 125 μM, negative control = 100%, read-out: Enhancement Ratio (%)), the activity at 125 µM worked out at 897%.
For the molecule Rosmarinic acid [Compound (23)], the “Enhancement Ratio (%)” value is reported as 110.9% in test [1] (setting [8]) and 131.1% in test [1] (added amount 200 μM, negative control = 100%).
With Safflomin A, the “Enhancement of NGF production (in words)” value in test [1] is on record as “enhanced NGF production of the L-M cells”. Moreover, the “Enhancement Ratio (%)” value in test [1] (added amount 2.5 mg/ml, negative control = 100%) was 130.7%.
For the molecule Xanthoangelol [Compound (24)], the “Enhancement Ratio (%)” value in test [1] (added amount 25 μM, negative control = 100%) was 126.1%; in test [1] (added amount 50 μM, negative control = 100%) it was 202.6%; in test [1] (setting [8]), 265.7%.
In the case of α-Hydroxybutein [Compound (25)], the “Enhancement Ratio (%)” value in test [1] (added amount 31.25 μM, negative control = 100%) amounted to 160.6%; in test [1] (added amount 62.5 μM, negative control = 100%) it was 183.6%; in test [1] (added amount 125 μM, negative control = 100%), 273.6%; in test [1] (added amount 250 μM, negative control = 100%), 495.3%.

(Values after US7268160B2, “Remedies” (Takara Bio, Inc., priority 2000, dated 2007).)
